The text below walks through data of patent publication US20230048366A1, “COMBINATION THERAPY FOR TREATING OR PREVENTING CANCER” (4D Pharma Research Limited, priority 2018, published 2023).

The subject of experiment [1] is RENCA tumour cells. Description: Antitumor activity, RENCA model (tumour volume). Type of experiment: in vivo, mouse. The note with it: D18 and D22, compared to untreated and vehicle groups, FIG. 3B. How it is done:
Treatment schedule—The start of first dosing was considered as D0. On D0, non-engrafted mice were randomized according to their individual body weight into groups of 9 mice using Vivo Manager® software (Biosystemes, Couternon, France). On D0, the mice received vehicle (culture medium) or bacterial strain (2×10^8 in 200 μL, PO). On D14, all mice were engrafted with RENCA tumour cells injected SC into the ventral surface of the lower flank as described below. Treatment with anti-CTLA-4 (10 mg/kg, IP) and anti-PDL1 (clone 10F.9G2, 10 mg/kg) was initiated when tumours reached a volume of 50-70 mm3.
Orthotopic induction of RENCA tumor cells in animals by SC injection—On D14, one million (1×10^6) RENCA tumor cells in 50 μL RPMI 1640 medium were transplanted via SC injection into the ventral surface of the lower flank of mice.
Euthanasia—Each mouse was euthanized when it reached a humane endpoint as described in section below, or after a maximum of 6 weeks post start of dosing.
Evaluation of tumour burden at euthanasia—At the time of termination, tumours were collected and their volume evaluated.
Clinical monitoring—The length and width of the tumour was measured twice a week with callipers and the volume of the tumour was estimated by this formula [52]: […]

In experiment [2] the test system is immature dendritic cells. Description: Cytokine production in immature dendritic cells. The note with it: MRX518 10^7/ml, LPS 100 ng/ml. The experiment is classed as cell-based. On the procedure:
This study tested the effect of the bacterial strain MRX518 alone and in combination with lipopolysaccharide (LPS) on cytokine production in immature dendritic cells.
A monocyte population was isolated from peripheral blood mononuclear cells (PBMCs). The monocyte cells were subsequently differentiated into immature dendritic cells. The immature dendritic cells were plated out at 200,000 cells/well and incubated with MRX518 at a final concentration of 10^7/ml, with the optional addition of LPS at a final concentration of 100 ng/ml. The negative control involved incubating the cells with RPMI media alone and positive controls incubated the cells with LPS at a final concentration of 100 ng/ml. The cytokine content of the cells was then analysed.

Setting [3] is: compared to the negative control, FIGS. 4a-d.

In the case of `CC(=O)O[C@H]1C(=O)[C@@]2(C)[C@H]([C@H](OC(=O)c3ccccc3)[C@]3(O)C[C@H](OC(=O)[C@H](O)[C@@H](NC(=O)c4ccccc4)c4ccccc4)C(C)=C1C3(C)C)[C@]1(OC(C)=O)CO[C@@H]1C[C@@H]2O` [Paclitaxel], in experiment [1], the tumour size result is “(almost) complete reduction in tumour size”.
Turning to lipopolysaccharide [LPS], the “level of IL-1β” value in experiment [2] (FIGS. 4b, 4d) is “not IL-1β”. In experiment [2] (setting [3]), the “level of IL-6” value is given as “increase” and the “level of TNF-α” value was “increase”.
